# Source: PubChem BioAssay (NCI)
#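 Assay format: 96-well plates, 48-hour exposure. Abbreviation: GI50, concentration required for 50% inhibition of growth. TGI: concentration producing complete growth inhibition.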
# Assays:
# Assay in all cases: inhibition of tumour cell growth, NCI panel, 48 h
# [1] = system: SN12C renal
# [2] = system: SF-539 CNS
# [3] = system: NCI-H522 lung
# [4] = system: DU-145 prostate
# [5] = system: NCI/ADR-RES ovarian
# [6] = system: ACHN renal
# [7] = system: OVCAR-8 ovarian
# [8] = system: LOX IMVI melanoma
# [9] = system: U251 CNS
# [10] = system: MDA-MB-435
# [11] = system: K-562 leukemia
# [12] = system: HCT-15 colon
# [13] = system: KM12 colon
# [14] = system: NCI-H460 lung
# [15] = system: SK-MEL-5 melanoma
# [16] = system: HL-60(TB) leukemia
# [17] = system: SNB-19 CNS
# [18] = system: UACC-257 melanoma
# [19] = system: CAKI-1 renal
# [20] = system: MALME-3M melanoma
# [21] = system: MCF7 breast
# [22] = system: OVCAR-3 ovarian
# [23] = system: SF-268 CNS
# [24] = system: EKVX NSCLC
# [25] = system: NCI-H226 lung
# [26] = system: SK-MEL-28 melanoma
# [27] = system: SNB-75 CNS
# [28] = system: MDA-MB-231 breast
# [29] = system: SR leukemia
# [30] = system: 786-0 renal
# [31] = system: SW-620 colon
# [32] = system: RXF 393 renal
# [33] = system: M14 melanoma
# [34] = system: A498 renal
# [35] = system: NCI-H23 lung
# [36] = system: RPMI-8226 leukemia
# [37] = system: OVCAR-5 ovarian
# [38] = system: CCRF-CEM leukemia
# [39] = system: BT-549 breast
# [40] = system: OVCAR-4 ovarian
# [41] = system: IGROV1 ovarian
# [42] = system: HS 578T breast
# [43] = system: MOLT-4 leukemia
# [44] = system: SF-295 CNS
# [45] = system: T-47D breast
# [46] = system: SK-OV-3 ovarian
# [47] = system: HOP-92 NSCLC
# [48] = system: UO-31 renal
# [49] = system: UACC-62 melanoma
# [50] = system: PC-3 prostate
# [51] = system: HCT-116 colon
# [52] = system: SK-MEL-2 melanoma
# [53] = system: HOP-62 NSCLC
# [54] = system: COLO 205 colon
# [55] = system: TK-10 renal
# [56] = system: A549 NSCLC
# [57] = system: HT29 colon
# [58] = system: HCC-2998 colon
# [59] = system: MDA-N
compound,measurement,setting,value
COc1cc(-n2cc(-c3ccc(F)cc3)nc2SCc2ccccc2)cc(OC)c1OC,GI50,[1],> 100 µM
same,TGI,[1],> 100 µM
same,GI50,[2],> 100 µM
same,TGI,[2],> 100 µM
same,GI50,[3],89.8 µM
same,TGI,[3],> 100 µM
same,GI50,[4],> 100 µM
same,TGI,[4],> 100 µM
same,GI50,[5],> 100 µM
same,TGI,[5],> 100 µM
same,GI50,[6],> 100 µM
same,TGI,[6],> 100 µM
same,GI50,[7],> 100 µM
same,TGI,[7],> 100 µM
same,GI50,[8],> 100 µM
same,TGI,[8],> 100 µM
same,GI50,[9],> 100 µM
same,TGI,[9],> 100 µM
same,GI50,[10],> 100 µM
same,TGI,[10],> 100 µM
same,GI50,[11],8.1 µM
same,TGI,[11],> 100 µM
same,GI50,[12],> 100 µM
same,TGI,[12],> 100 µM
same,GI50,[13],> 100 µM
same,TGI,[13],> 100 µM
same,GI50,[14],77.2 µM
same,TGI,[14],> 100 µM
same,GI50,[15],54.8 µM
same,TGI,[15],> 100 µM
same,GI50,[16],> 100 µM
same,TGI,[16],> 100 µM
same,GI50,[17],> 100 µM
same,TGI,[17],> 100 µM
same,GI50,[18],> 100 µM
same,TGI,[18],> 100 µM
same,GI50,[19],> 100 µM
same,TGI,[19],> 100 µM
same,GI50,[20],> 100 µM
same,TGI,[20],> 100 µM
same,GI50,[21],> 100 µM
same,TGI,[21],> 100 µM
same,GI50,[22],> 100 µM
same,TGI,[22],> 100 µM
same,GI50,[23],> 100 µM
same,TGI,[23],> 100 µM
same,GI50,[24],> 100 µM
same,TGI,[24],> 100 µM
same,GI50,[25],> 100 µM
same,TGI,[25],> 100 µM
same,GI50,[26],> 100 µM
same,TGI,[26],> 100 µM
same,GI50,[27],> 100 µM
same,TGI,[27],> 100 µM
same,GI50,[28],> 100 µM
same,TGI,[28],> 100 µM
same,GI50,[29],> 100 µM
same,TGI,[29],> 100 µM
same,GI50,[30],> 100 µM
same,TGI,[30],> 100 µM
same,GI50,[31],> 100 µM
same,TGI,[31],> 100 µM
same,GI50,[32],19.4 µM
same,TGI,[32],> 100 µM
same,GI50,[33],> 100 µM
same,TGI,[33],> 100 µM
same,GI50,[34],37.4 µM
same,TGI,[34],> 100 µM
same,GI50,[35],> 100 µM
same,TGI,[35],> 100 µM
same,GI50,[36],> 100 µM
same,TGI,[36],> 100 µM
same,GI50,[37],> 100 µM
same,TGI,[37],> 100 µM
same,GI50,[38],17.7 µM
same,TGI,[38],43.8 µM
same,GI50,[39],> 100 µM
same,TGI,[39],> 100 µM
same,GI50,[40],> 100 µM
same,TGI,[40],> 100 µM
same,GI50,[41],> 100 µM
same,TGI,[41],> 100 µM
same,GI50,[42],> 100 µM
same,TGI,[42],> 100 µM
same,GI50,[43],89.2 µM
same,TGI,[43],> 100 µM
same,GI50,[44],> 100 µM
same,TGI,[44],> 100 µM
same,GI50,[45],9.57 µM
same,TGI,[45],> 100 µM
same,GI50,[46],> 100 µM
same,TGI,[46],> 100 µM
same,GI50,[47],1.48 µM
same,TGI,[47],37 µM
same,GI50,[48],9.66 µM
same,TGI,[48],> 100 µM
same,GI50,[49],> 100 µM
same,TGI,[49],> 100 µM
same,GI50,[50],9.48 µM
same,TGI,[50],> 100 µM
same,GI50,[51],18.8 µM
same,TGI,[51],> 100 µM
same,GI50,[52],> 100 µM
same,TGI,[52],> 100 µM
same,GI50,[53],> 100 µM
same,TGI,[53],> 100 µM
same,GI50,[54],> 100 µM
same,TGI,[54],> 100 µM
same,GI50,[55],> 100 µM
same,TGI,[55],> 100 µM
same,GI50,[56],> 100 µM
same,TGI,[56],> 100 µM
same,GI50,[57],13.4 µM
same,TGI,[57],> 100 µM
same,GI50,[58],> 100 µM
same,TGI,[58],> 100 µM
CC(=O)N1CN2C(=O)CCC2c2ccccc21 (stereo not drawn),TGI,[1],> 100 µM
same,TGI,[2],> 100 µM
same,TGI,[3],> 100 µM
same,TGI,[4],> 100 µM
same,TGI,[5],> 100 µM
same,TGI,[6],> 100 µM
same,TGI,[7],> 100 µM
same,TGI,[8],> 100 µM
same,TGI,[9],> 100 µM
same,TGI,[10],> 100 µM
same,TGI,[11],> 100 µM
same,TGI,[12],> 100 µM
same,TGI,[13],> 100 µM
same,TGI,[14],> 100 µM
same,TGI,[15],> 100 µM
same,TGI,[17],> 100 µM
same,TGI,[18],> 100 µM
same,TGI,[19],> 100 µM
same,TGI,[20],> 100 µM
same,TGI,[21],> 100 µM
same,TGI,[59],> 100 µM
same,TGI,[22],> 100 µM
same,TGI,[23],> 100 µM
same,TGI,[24],> 100 µM
same,TGI,[25],> 100 µM
same,TGI,[26],> 100 µM
same,TGI,[27],> 100 µM
same,TGI,[28],> 100 µM
same,TGI,[29],97.9 µM
same,TGI,[30],> 100 µM
same,TGI,[31],> 100 µM
same,TGI,[32],> 100 µM
same,TGI,[33],> 100 µM
same,TGI,[34],> 100 µM
same,TGI,[35],> 100 µM
same,TGI,[36],> 100 µM
same,TGI,[37],> 100 µM
same,TGI,[38],> 100 µM
same,TGI,[40],> 100 µM
same,TGI,[41],> 100 µM
same,TGI,[42],> 100 µM
same,TGI,[43],> 100 µM
same,TGI,[44],> 100 µM
same,TGI,[45],> 100 µM
same,TGI,[46],> 100 µM
same,TGI,[47],> 100 µM
same,TGI,[48],> 100 µM
same,TGI,[49],> 100 µM
same,TGI,[50],> 100 µM
same,TGI,[51],> 100 µM
same,TGI,[52],> 100 µM
same,TGI,[53],> 100 µM
same,TGI,[54],> 100 µM
same,TGI,[55],> 100 µM
same,TGI,[56],> 100 µM
same,TGI,[57],> 100 µM
same,TGI,[58],> 100 µM
